The target of one assay is T1, BCL-xL D107A (Homo sapiens, UniProt Q07817, D107A).
T1 construct: BCL-xL (aa 2-212) and BCL-2 (aa 1-207) transformed cells were grown in LB broth; SMT3 (N); made in house; host or cells: E. coli BL21 (DE3) codon plus
Description: AlphaScreen binary binding, BCL-xL D107A. The following applies: mean ± s.d., n=3. The procedure: To test the binary/ternary binding affinities of compounds to BCL-2/BCL-xL, AlphaScreen displacement binding assay was performed to test the capabilities of testing compounds to displace a Biotin-tagged Bim (Biotin-[…]) or Bad (Biotin-[…]) from BCL-2 or BCL-xL for BCL-2 and BCL-xL binding affinities, respectively. All reagents were diluted in assay buffer of 25 mM HEPES, pH 7.5, 150 mM NaCl, 0.1% BSA, and 0.005% tween 20 prior incubation. To a 96-well PCR plate (VWR, Cat. No. 82006-636) was added 10 μL Biotin-tagged Bim (15 nM for WT or 50 nM for mutants) or Bad (15 nM for WT or 50 nM for mutants), 10 μL series diluted compounds solution (2 or 3 or 4× dilution), and 10 μL self-made 6×His tagged BCL-2 WT or mutants (25 nM WT or 50 nM mutants) or 10 μL self-made BCL-xL WT and mutants (10 nM WT or 50 nM mutants). […] The luminescence signal was detected on a Biotek’s Synergy Neo2 multimode plate reader installed with an AphaScreen filter cube. The Ki values of each compounds were calculated by fitting data into the “Binding-competitive, One site-Fit Ki” function in GraphPad Prism (9.2.0) based on concentrations of Biotin–peptide used and experimentally determined Kd values of each 6×His protein &&&and Biotin–Peptide pair.

The next assay relates to Jurkat cells. Description: Viability (MTS) assay in Jurkat cells. In kind it is cell-based, human. The following applies: 72 h. Here is the method: For the viability assays in Jurkat cells, the cells in complete cell culture medium were seeded in 96-well plates (100 µl per well) at the optimized densities (50,000 cells). Compound treatments were prepared in complete cell culture medium and 100 µl of 2× treatment-containing medium were added to each well. Complete cell culture medium without treatment was added in control wells, and wells containing medium without cells served as background. The outer wells of the 96-well plate were not used for treatment and were filled with 250 µl of PBS to reduce evaporation of medium from inner wells. Each compound and/or combination was tested at nine different concentrations with three replicates. The cell viability was measured after 72 h by tetrazolium-based MTS assay. […] The cells were incubated for 4 h at 37 °C and 5% CO2, and then the absorbance was recorded at 490 nm using Biotek’s Synergy Neo2 multimode plate reader (Biotek). The average absorbance value of background wells was subtracted from absorbance value of each control and treatment well, and percent cell viability ((At/A0) × 100) was determined in each treatment well, where At is the absorbance value of the treatment well and A0 is the average absorbance value of control wells after background subtraction. […]

The target in the next assay is T2, BCL-2 E114A (Homo sapiens, UniProt P10415+P40337, E114A).
T2 construct: BCL-xL (aa 2-212) and BCL-2 (aa 1-207) transformed cells were grown in LB broth; VHL (aa 54-213) and ElonginBC were co-transformed (VCB); 6xHis (TEV-cleavable) (N, cleaved yes); made in house; host or cells: E. coli BL21 (DE3) codon plus (BCL-2, VCB); Trichoplusia ni High-Five insect cells (Cullin2-Rbx1)
Description: Polyubiquitin chain formation assay, BCL-2 E114A. The following applies: 10 μM WH244, 1 h, Fig. 5d. Format: biochemical. The procedure: WT BCL-xL/BCL-2 (5 μM) were ubiquitinated in the presence of E1 SpUba1 (0.1 μM), E2, UbcH5c (1 μM) and Cdc34 (1 μM), ubiquitin (75 μM), VHL-Elongin C-Elongin B complex (0.35 μM), neddylated Cullin2-Rbx1 complex (0.35 μM) and 753b or WH244 (10 μM) at 37 °C in a buffer of 50 mM HEPES, pH 7.5, 10 mM MgCl2, 100 mM NaCl, 2 mM ATP, and 0.5 mM DTT. The reaction mixture was incubated for indicated time points (Supplementary Fig. 4a, b, d, e, g, h) and was terminated by the addition of 1× reducing SDS-PAGE loading buffer. The polyUb chain formation was assessed using immunoblotting as described earlier. For polyUb chain formation on mutant proteins used in this study, the above protocol was used with a fixed time-point of 1 h.

The next assay relates to human platelets. The experiment in a line: Potency against human platelets in vitro. Format: cell-based.

From PMC10979003, “Development and crystal structures of a potent second-generation dual degrader of BCL-2 and BCL-xL” (Nature Communications, 2024) come the findings set out here.

T1 sequence (Q07817 2-212 D107A): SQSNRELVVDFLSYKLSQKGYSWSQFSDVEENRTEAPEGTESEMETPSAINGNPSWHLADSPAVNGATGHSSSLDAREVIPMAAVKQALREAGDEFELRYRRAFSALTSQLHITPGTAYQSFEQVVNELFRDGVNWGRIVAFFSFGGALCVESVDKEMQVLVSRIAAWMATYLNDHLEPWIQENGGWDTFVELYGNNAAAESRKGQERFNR

On to `Cc1ncsc1-c1ccc(C(C)NC(=O)C2CC(O)CN2C(=O)C(NC(=O)CCCCCCC(=O)N2CCN(CC3(C)CCC(c4ccc(Cl)cc4)=C(CN4CCN(c5ccc(C(=O)NS(=O)(=O)c6ccc(NC(CCN7CCOCC7)CSc7ccccc7)c(S(=O)(=O)C(F)(F)F)c6)cc5)CC4)C3)CC2)C(C)(C)C)cc1` (stereo not shown) [753b], for which, on BCL-xL D107A, the Ki was 30.3 ± 4.5 nM.

In the case of `Cc1ncsc1-c1ccc([C@H](C)NC(=O)[C@@H]2C[C@@H](O)CN2C(=O)[C@@H](NC(=O)CN2CCN(CC(=O)N3CCN(C[C@]4(C)CCC(c5ccc(Cl)cc5)=C(CN5CCN(c6ccc(C(=O)NS(=O)(=O)c7ccc(N[C@H](CCN8C[C@@H]9C[C@H]8CO9)CSc8ccccc8)c(S(=O)(=O)C(F)(F)F)c7)cc6)CC5)C4)CC3)CC2)C(C)(C)C)cc1` [WH244], the “Potency in killing Jurkat cells (comparison)” value in the assay with Jurkat cells was “outperformed 753b, DT2216, and ABT263”. On BCL-2 E114A, the “PolyUb chain formation retained by E114A, share of the WT activity” value is 10-12%. Moreover, the “Increase in therapeutic index compared to ABT263” value with human platelets is reported as “more than 100 fold”.

Usually Ki stands for the equilibrium dissociation constant of an inhibitor or competing ligand from its target.
